In ChEMBL document CHEMBL1143357, “Synthesis and biological activities of high affinity taxane-based fluorescent probes” (Bioorg Med Chem Lett, 2009):

How the values were obtained:
A2780 [1] = test: Resistant factor, ratio of IC50 for p-glycoprotein expressing drug-resistant human A2780AD cells to IC50 for human A2780 cells; assay type: functional
A2780 [2] = conditions: Homo sapiens, A2780, 48 h
[3] = Induction of assembly of GTP-tubulin into microtubules assessed as critical concentration
A2780 [4] = test: cells; conditions: Homo sapiens, A2780, 48 h
Description: Cytotoxicity against human A2780 cells after 48 hrs by MTT assay

[5] = Displacement of non-fluorescent ligand from paclitaxel binding site of microtubule

SMILES | Ratio IC50 (A2780 [1]) | IC50 (A2780 [2]) | Activity [3] | IC50 (A2780 [4]) | Ka [5]
COc1cccc(C(=O)O[C@H]2[C@@H]3[C@]4(OC(C)=O)CO[C@@H]4C[C@H](OC(=O)[C@H](C)NC(=O)c4ccc(-c5c6cc(F)c(=O)cc-6oc6cc(O)c(F)cc56)c(C(=O)O)c4)[C@@]3(C)C(=O)[C@H](OC(C)=O)C3=C(C)[C@@H](OC(=O)[C@H](O)[C@@H](NC(=O)c4ccccc4)c4ccccc4)C[C@]2(O)C3(C)C)c1 | 26.4 | 7200 nM | 2.17 µM | 272 nM | 
C/C=C(\C)C(=O)N[C@@H](c1ccccc1)[C@@H](O)C(=O)O[C@H]1C[C@@]2(O)[C@@H](OC(=O)c3cccc(N=[N+]=[N-])c3)[C@@H]3[C@]4(OC(C)=O)CO[C@@H]4C[C@H](OC(=O)[C@H](C)NC(=O)c4ccc(-c5c6ccc(=O)cc-6oc6cc(O)ccc56)c(C(=O)O)c4)[C@@]3(C)C(=O)[C@H](OC(C)=O)C(=C1C)C2(C)C | >91 | > 20000 nM | 2.45 µM | 220 nM | 
COc1cccc(C(=O)O[C@H]2[C@@H]3[C@]4(OC(C)=O)CO[C@@H]4C[C@H](OC(=O)[C@H](C)NC(=O)c4ccc(-c5c6ccc(=O)cc-6oc6cc(O)ccc56)c(C(=O)O)c4)[C@@]3(C)C(=O)[C@H](OC(C)=O)C3=C(C)[C@@H](OC(=O)[C@H](O)[C@@H](NC(=O)c4ccccc4)c4ccccc4)C[C@]2(O)C3(C)C)c1 | 36.7 | 716 nM | 2.26 µM | 19.5 nM | 
C/C(=C\c1csc(C)n1)[C@@H]1C[C@@H]2O[C@]2(C)CCC[C@H](C)[C@H](O)[C@@H](C)C(=O)C(C)(C)[C@@H](O)CC(=O)O1 |  |  |  |  | 7.5 ×10⁸ /M
CC(=O)O[C@@]12CO[C@@H]1C[C@H](O)[C@@]1(C)C(=O)[C@H](O)C3=C(C)[C@@H](OC(=O)[C@H](O)[C@@H](NC(=O)OC(C)(C)C)c4ccccc4)C[C@@](O)([C@@H](OC(=O)c4ccccc4)[C@H]21)C3(C)C.O.O.O [DOCETAXEL] | 483 | 290 nM | 2.5 µM | 0.6 nM | 
CC(=O)O[C@H]1C(=O)[C@]2(C)[C@@H](OC(=O)[C@H](C)NC(=O)c3ccc(-c4c5ccc(=O)cc-5oc5cc(O)ccc45)c(C(=O)O)c3)C[C@H]3OC[C@@]3(OC(C)=O)[C@H]2[C@H](OC(=O)c2ccccc2)[C@]2(O)C[C@H](OC(=O)[C@H](O)[C@@H](NC(=O)c3ccccc3)c3ccccc3)C(C)=C1C2(C)C [FLUTAX 1] | >78 | > 20000 nM | 3.84 µM | 256 nM | 
CC(=O)O[C@H]1C(=O)[C@]2(C)[C@@H](OC(=O)[C@H](C)NC(=O)c3ccc(-c4c5cc(F)c(=O)cc-5oc5cc(O)c(F)cc45)c(C(=O)O)c3)C[C@H]3OC[C@@]3(OC(C)=O)[C@H]2[C@H](OC(=O)c2ccccc2)[C@]2(O)C[C@H](OC(=O)[C@H](O)[C@@H](NC(=O)c3ccccc3)c3ccccc3)C(C)=C1C2(C)C [FLUTAX 2] | >25 | > 20000 nM | 3.22 µM | 800 nM | 
CC(=O)O[C@H]1C(=O)[C@@]2(C)[C@H]([C@H](OC(=O)c3ccccc3)[C@]3(O)C[C@H](OC(=O)[C@H](O)[C@@H](NC(=O)c4ccccc4)c4ccccc4)C(C)=C1C3(C)C)[C@]1(OC(C)=O)CO[C@@H]1C[C@@H]2O [PACLITAXEL] |  |  | 4.23 µM | 1.3 nM | 
